These are literature values, as cited in US12285031B2, “Beverage with collagen and additional additives” (WELLDRINKS LTD, priority 2015, dated 2025).

SMILES strings stand for the structures. Square brackets hold non-standard residues; d marks the D form. Peptide text beside a SMILES is read from it. Hyp = O=C(O)[C@@H]1C[C@@H](O)CN1

For data set [1] the following is noted: adult humans.
A further data set deals with dermal fibroblasts. The following applies: in vitro.

Regarding `[Mn+2]` [Mn, Manganese], the “fraction of ingested Mn absorbed” value in data set [1] is recorded as 3-5%.
For `O=C(O)CNC(=O)[C@@H]1C[C@@H](O)CN1` [Hyp-Gly, hydroxyprolyl-glycine] (H-[Hyp]-Gly-OH), the “cell proliferation of dermal fibroblasts” value in the data set with dermal fibroblasts is given as “enhance cell proliferation”.
Regarding `O=C(O)[C@@H]1C[C@@H](O)CN1C(=O)[C@@H]1CCCN1` [Pro-Hyp, prolyl-hydroxyproline] (H-Pro-[Hyp]-OH), in the data set on dermal fibroblasts, the “cell proliferation of dermal fibroblasts” value is recorded as “enhance cell proliferation” and the “production of hyaluronic acid by dermal fibroblasts” value is recorded as “enhances”.
